# Results published in patent publication US9040715B2 (priority 2008, dated 2015).
# Read-outs that look alike come from different tables or passages of the source.
# How the values were obtained:
# Assay type in all cases: cell-based
# Candida tropicalis = test: Anti-fungal/anti-yeast activity: MIC50 (broth microdilution) and MFC
# Method: (§1) Fluconazole, an ergosterol inhibitor, and the beta-1,3-glucan inhibitor micafungin served as controls (See Tables 1-8).
# (§2) The minimum inhibitory concentrations resulting in 50% growth inhibition (MIC50) of […] Candida species (C. albicans, C. tropicalis and C. glabrata, C. lusitaniae, C. parapsilosis, and C. apicola) as well as Aspergillus fumigatus to a set of novel synthetic compounds was determined in accordance with the guidelines in CLSI document M27-A2 (Clinical and Laboratory Standards Institute; Wayne, Pa.). The total volume of cells and drug was 100 μL per microtiter well, and each drug was diluted in RPMI to achieve final concentrations of 0.2-100 μg/ml. Uninoculated cultures were used as a reference standard. Stock inoculum suspensions were prepared from 24 hour cultures on YPD (yeast extract/peptone/dextrose) media at 30° C. For MIC determinations, an inoculum of 1.0×10^3 cells of Candidia and 2.0×10^3 cells of Aspergillus per well were used, and cells in diluted drugs were prepared in RPMI-1640 medium. MICs were determined both visually and spectrophotometrically at 24 hours and 48 h at 550 nm using a micro plate reader. The MIC50 endpoint was measured as the lowest drug concentration resulting in a reduction of growth of 50% or more compared with growth of the control.
# (§3) The minimum fungicidal concentrations (MFCs) were determined for each drug-isolate-medium combination as follows. After 48 hours of incubation, 100 μL of each drug-isolate-medium combination (2 plates) was subcultured onto YPD plates (100 μL of solution was spread over the YPD plate). […] The plates were then incubated at 30° C. for 48 hours.
# (§4) The in vitro fungicidal activities (MFCs) were determined for each drug-isolate-medium combination as follows. After 48 hours of incubation, 10 μL each drug-isolate-medium combination was spotted onto YPD plates (10 μL of each well is spotted sequentially with positive and negative control wells). […] The plates were then incubated at 30° C. for 48 hours.
# Candida glabrata = test: as above; settings: Candida glabrata
# Method: as §1, §2, §3, §4
# Aspergillus fumigatus = test: as above
# Method: as §1, §2, §3, §4
# Candida lusitaniae = test: as above; settings: Candida lusitaniae
# Method: as §1, §2, §3, §4
# Candidia parapsilosis = test: as above; settings: Candidia parapsilosis
# Method: as §1, §2, §3, §4
# Candida apicola = test: as above; settings: Candida apicola
# Method: as §1, §2, §3, §4
# Candida albicans (CAF-2) = test: as above
# Method: as §1, §2, §3, §4
# [1] = system: Fluconazole Resistant C. albicans; test: microbe, parasite or virus in culture; settings: Candida albicans, read-out: MIC50
# Method: as §2
# The MIC50 of Compounds I-1, I-2, and I-5 in several mutant strains of Candida albicans, including fluconazole resistant clinical strains, was determined according to the methods described in Example 1 (see Table 9). The activity of Compound I-1 against fluconazole resistant strains was further explored (see Table 10). In Table 10, Strain #1 is a fluconazole sensitive Candida albicans strain; Strain #17 is a fluconazole resistant Candida albicans strain; C. albicans CS#01 is a first clinical strain; C. albicans CS#02 is a second clinical strain.
# [2] = system: Saccharomyces cerevisiae (YPH501); test: Anti-fungal/anti-yeast activity: MIC50 (broth microdilution) and MFC; settings: Saccharomyces cerevisiae (YPH501)
structure (smiles),measurement,setting,value
"OC(Cn1cncn1)(Cn1cncn1)c1ccc(F)cc1F [Fluconazole, reference compound]",Activity (fungicidal/fungistatic),Candida tropicalis,fungistatic (an MFC/MIC ratio of greater than four indicates that the compound is fungistatic)
same,Ratio MFC/MIC,Candida tropicalis,5
same,MFC,Candida tropicalis; read-out: MFC,100 µg/mL
same,MIC50,Candida tropicalis; read-out: MIC-50,20 µg/mL
same,Activity (fungicidal/fungistatic),Candida glabrata,fungistatic (an MFC/MIC ratio of greater than four indicates that the compound is fungistatic)
same,Ratio MFC/MIC,Candida glabrata,9
same,MFC,"Candida glabrata; Nakaseomyces glabratus, read-out: MFC",50 µg/mL
same,MIC50,"Candida glabrata; Nakaseomyces glabratus, read-out: MIC-50",6.2 µg/mL
same,Activity (fungicidal/fungistatic),Aspergillus fumigatus,fungistatic (an MFC/MIC ratio of greater than four indicates that the compound is fungistatic)
same,Ratio MFC/MIC,Aspergillus fumigatus,7
same,MFC,Aspergillus fumigatus; read-out: MFC,200 µg/mL
same,MIC50,Aspergillus fumigatus; read-out: MIC-50,30 µg/mL
same,Activity (fungicidal/fungistatic),Candida lusitaniae,fungistatic (an MFC/MIC ratio of greater than four indicates that the compound is fungistatic)
same,Ratio MFC/MIC,Candida lusitaniae,8
same,MFC,"Candida lusitaniae; Clavispora lusitaniae, read-out: MFC",25 µg/mL
same,MIC50,"Candida lusitaniae; Clavispora lusitaniae, read-out: MIC-50",3.2 µg/mL
same,Activity (fungicidal/fungistatic),Candidia parapsilosis,fungistatic (an MFC/MIC ratio of greater than four indicates that the compound is fungistatic)
same,Ratio MFC/MIC,Candidia parapsilosis,10
same,MFC,Candidia parapsilosis; read-out: MFC,4 µg/mL
same,MIC50,Candidia parapsilosis; read-out: MIC-50,0.4 µg/mL
same,Activity (fungicidal/fungistatic),Candida apicola,fungistatic (an MFC/MIC ratio of greater than four indicates that the compound is fungistatic)
same,Ratio MFC/MIC,Candida apicola,5
same,MFC,"Candida apicola; Starmerella apicola, read-out: MFC",1 µg/mL
same,MIC50,"Candida apicola; Starmerella apicola, read-out: MIC-50",0.2 µg/mL
same,Activity (fungicidal/fungistatic),Candida albicans (CAF-2),fungistatic (an MFC/MIC ratio of greater than four indicates that the compound is fungistatic)
same,MFC,Candida albicans (CAF-2),5 µg/mL
same,MIC50,Candida albicans (CAF-2),0.25 µg/mL
same,Ratio MFC/MIC,Candida albicans (CAF-2),20
same,MIC50,"[1]; C. albicans CS#01, first clinical strain",1.6 µg/mL
same,MIC50,"[1]; C. albicans CS#02, second clinical strain",1.6 µg/mL
same,MIC50,"[1]; Strain #1, fluconazole sensitive Candida albicans strain",0.8 µg/mL
same,MIC50,"[1]; Strain #17, fluconazole resistant Candida albicans strain",> 100 µg/mL
same,Activity (fungicidal/fungistatic),[2],fungicidal (An MFC/MIC ratio of less than four indicates that the compound is fungicidal)
same,Ratio MFC/MIC,[2],1
same,MFC,[2]; read-out: MFC,10 µg/mL
same,MIC50,[2]; read-out: MIC-50,10 µg/mL
